Counter-ions that a name gives are not always drawn.
Experiments:
CHO [1] = experiment: Genotoxicity in CHO cells assessed as chromosomal aberrations at 100 ppm after 90 mins in dark; assay type: toxicity, cell-based, Cricetulus griseus; conditions: chinese hamster, 1.5 h
CHO [2] = experiment: Genotoxicity in CHO cells assessed as chromosomal aberrations at 50 ppm after 60 mins in dark followed by 5 W/m'2 UV irradiation for 30 mins; assay type: toxicity, cell-based, Cricetulus griseus; conditions: chinese hamster
CHO [3] = experiment: Genotoxicity in CHO cells assessed as chromosomal aberrations at 25 ppm after 60 mins in dark followed by 5 W/m'2 UV irradiation for 30 mins; assay type: toxicity, cell-based, Cricetulus griseus; conditions: chinese hamster
CHO [4] = experiment: Genotoxicity in CHO cells assessed as mitotic inhibition at 6.3 ppm after 60 mins in dark followed by 5 W/m'2 UV irradiation for 30 mins; assay type: toxicity, cell-based, Cricetulus griseus; conditions: chinese hamster, 0.5 h
CHO [5] = experiment: Phototoxicity against CHO cells at 25 ppm; assay type: cell-based, Cricetulus griseus; conditions: chinese hamster
CHO [6] = experiment: Genotoxicity in CHO cells assessed as chromosomal aberrations at 100 ppm after 60 mins in dark followed by 5 W/m'2 UV irradiation for 30 mins; assay type: toxicity, cell-based, Cricetulus griseus; conditions: chinese hamster, 0.5 h
CHO [7] = experiment: Genotoxicity in CHO cells assessed as chromosomal aberrations at 12.5 ppm after 60 mins in dark followed by 5 W/m'2 UV irradiation for 30 mins; assay type: toxicity, cell-based, Cricetulus griseus; conditions: chinese hamster, 0.5 h
CHO [8] = experiment: Phototoxicity against CHO cells assessed as mitotic inhibition at 12 ppm after UV irradiation; assay type: cell-based, Cricetulus griseus; conditions: chinese hamster
Saccharomyces cerevisiae [9] = experiment: Phototoxicity against Saccharomyces cerevisiae at 100 ug/disk in dark; assay type: functional; conditions: light or radiation study, read-out: IZ
Pseudomonas aeruginosa [10] = experiment: Phototoxicity against Pseudomonas aeruginosa at 100 ug/disk after irradiation with W/m'2 UV light; assay type: functional; conditions: light or radiation study, read-out: IZ
Enterococcus faecalis [11] = experiment: Phototoxicity against Streptococcus faecalis at 100 ug/disk in dark; assay type: functional; conditions: light or radiation study, read-out: IZ
Pseudomonas fluorescens [12] = experiment: Phototoxicity against Pseudomonas fluorescens at 100 ug/disk after irradiation with W/m'2 UV light; assay type: functional; conditions: light or radiation study, read-out: IZ
Bacillus subtilis [13] = experiment: Phototoxicity against Bacillus subtilis at 100 ug/disk after irradiation with W/m'2 UV light; assay type: functional; conditions: light or radiation study, read-out: IZ
Candida albicans [14] = experiment: Phototoxicity against Candida albicans at 100 ug/disk after irradiation with W/m'2 UV light; assay type: functional; conditions: light or radiation study, read-out: IZ
Saccharomyces cerevisiae [15] = experiment: Phototoxicity against Saccharomyces cerevisiae at 100 ug/disk after irradiation with W/m'2 UV light; assay type: functional; conditions: light or radiation study, read-out: IZ
Enterococcus faecalis [16] = experiment: Phototoxicity against Streptococcus faecalis at 100 ug/disk after irradiation with W/m'2 UV light; assay type: functional; conditions: light or radiation study, read-out: IZ
Pseudomonas fluorescens [17] = experiment: Phototoxicity against Pseudomonas fluorescens at 100 ug/disk in dark; assay type: functional; conditions: light or radiation study, read-out: IZ
Candida albicans [18] = experiment: Phototoxicity against Candida albicans at 100 ug/disk in dark; assay type: functional; conditions: light or radiation study, read-out: IZ
Pseudomonas aeruginosa [19] = experiment: Phototoxicity against Pseudomonas aeruginosa at 100 ug/disk in dark; assay type: functional; conditions: light or radiation study, read-out: IZ
Staphylococcus aureus [20] = experiment: Phototoxicity against Staphylococcus aureus at 100 ug/disk after irradiation with W/m'2 UV light; assay type: functional; conditions: light or radiation study, read-out: IZ
Staphylococcus aureus [21] = experiment: Phototoxicity against Staphylococcus aureus at 100 ug/disk in dark; assay type: functional; conditions: light or radiation study, read-out: IZ
[22] = (§1) Genotoxicity in CHO cells assessed as mitotic inhibition at 0.62 ppm after 60 mins in dark followed by 5 W/m'2 UV irradiation for 30 mins; assay type: toxicity, cell-based, Cricetulus griseus; conditions: chinese hamster, CHO cells; read-out: Activity
CHO [23] = experiment: Genotoxicity against CHO cells after UV irradiation; assay type: toxicity, cell-based, Cricetulus griseus; conditions: chinese hamster
CHO [24] = experiment: Genotoxicity against CHO cells; assay type: toxicity, cell-based, Cricetulus griseus; conditions: chinese hamster
CHO [25] = experiment: Genotoxicity in CHO cells assessed as mitotic inhibition at 0.31 ppm after 60 mins in dark followed by 5 W/m'2 UV irradiation for 30 mins; assay type: toxicity, cell-based, Cricetulus griseus; conditions: chinese hamster, 0.5 h
CHO [26] = experiment: as §1; assay type: toxicity, cell-based, Cricetulus griseus; conditions: chinese hamster, cho, 0.5 h
CHO [27] = experiment: Genotoxicity in CHO cells assessed as chromosomal aberrations at 0.07 ppm after 60 mins in dark followed by 5 W/m'2 UV irradiation for 30 mins; assay type: toxicity, cell-based, Cricetulus griseus; conditions: chinese hamster, 0.5 h
Candida albicans [28] = experiment: Phototoxicity against Candida albicans at 10 ug/disk in dark; assay type: functional; conditions: light or radiation study, read-out: IZ
Bacillus subtilis [29] = experiment: Phototoxicity against Bacillus subtilis at 10 ug/disk in dark; assay type: functional; conditions: light or radiation study, read-out: IZ
Bacillus subtilis [30] = experiment: Phototoxicity against Bacillus subtilis at 10 ug/disk after irradiation with W/m'2 UV light; assay type: functional; conditions: light or radiation study, read-out: IZ
Enterococcus faecalis [31] = experiment: Phototoxicity against Streptococcus faecalis at 10 ug/disk after irradiation with W/m'2 UV light; assay type: functional; conditions: light or radiation study, read-out: IZ
Pseudomonas fluorescens [32] = experiment: Phototoxicity against Pseudomonas fluorescens at 10 ug/disk after irradiation with W/m'2 UV light; assay type: functional; conditions: light or radiation study, read-out: IZ
Escherichia coli [33] = experiment: Phototoxicity against Escherichia coli at 10 ug/disk in dark; assay type: functional; conditions: light or radiation study, read-out: IZ
CHO [34] = experiment: Genotoxicity in CHO cells assessed as chromosomal aberrations at 31.2 ppm after 60 mins in dark followed by 5 W/m'2 UV irradiation for 30 mins; assay type: toxicity, cell-based, Cricetulus griseus; conditions: chinese hamster, 0.5 h
Pseudomonas aeruginosa [35] = experiment: Phototoxicity against Pseudomonas aeruginosa at 10 ug/disk in dark; assay type: functional; conditions: light or radiation study, read-out: IZ
Staphylococcus aureus [36] = experiment: Phototoxicity against Staphylococcus aureus at 10 ug/disk in dark; assay type: functional; conditions: light or radiation study, read-out: IZ
Candida albicans [37] = experiment: Phototoxicity against Candida albicans at 10 ug/disk after irradiation with W/m'2 UV light; assay type: functional; conditions: light or radiation study, read-out: IZ
Escherichia coli [38] = experiment: Phototoxicity against Escherichia coli at 10 ug/disk after irradiation with W/m'2 UV light; assay type: functional; conditions: light or radiation study, read-out: IZ
Pseudomonas aeruginosa [39] = experiment: Phototoxicity against Pseudomonas aeruginosa at 10 ug/disk after irradiation with W/m'2 UV light; assay type: functional; conditions: light or radiation study, read-out: IZ
Staphylococcus aureus [40] = experiment: Phototoxicity against Staphylococcus aureus at 10 ug/disk after irradiation with W/m'2 UV light; assay type: functional; conditions: light or radiation study, read-out: IZ
Saccharomyces cerevisiae [41] = experiment: Phototoxicity against Saccharomyces cerevisiae at 10 ug/disk in dark; assay type: functional; conditions: light or radiation study, read-out: IZ
CHO [42] = experiment: Genotoxicity in CHO cells assessed as chromosomal aberrations at 15.6 ppm after 60 mins in dark followed by 5 W/m'2 UV irradiation for 30 mins; assay type: toxicity, cell-based, Cricetulus griseus; conditions: chinese hamster, 0.5 h
Enterococcus faecalis [43] = experiment: Phototoxicity against Streptococcus faecalis at 10 ug/disk in dark; assay type: functional; conditions: light or radiation study, read-out: IZ
CHO [44] = experiment: Genotoxicity in CHO cells assessed as chromosomal aberrations at 125 ppm after 60 mins in dark followed by 5 W/m'2 UV irradiation for 30 mins; assay type: toxicity, cell-based, Cricetulus griseus; conditions: chinese hamster, 0.5 h
CHO [45] = experiment: Genotoxicity in CHO cells assessed as chromosomal aberrations at 62.5 ppm after 60 mins in dark followed by 5 W/m'2 UV irradiation for 30 mins; assay type: toxicity, cell-based, Cricetulus griseus; conditions: chinese hamster, 0.5 h
Pseudomonas fluorescens [46] = experiment: Phototoxicity against Pseudomonas fluorescens at 10 ug/disk in dark; assay type: functional; conditions: light or radiation study, read-out: IZ
CHO [47] = experiment: Genotoxicity in CHO cells assessed as chromosomal aberrations at 1.9 ppm after 60 mins in dark followed by 5 W/m'2 UV irradiation for 30 mins; assay type: toxicity, cell-based, Cricetulus griseus; conditions: chinese hamster, 0.5 h
CHO [48] = experiment: Genotoxicity in CHO cells assessed as mitotic inhibition at 3.9 ppm after 60 mins in dark followed by 5 W/m'2 UV irradiation for 30 mins; assay type: toxicity, cell-based, Cricetulus griseus; conditions: chinese hamster, 0.5 h
CHO [49] = experiment: Genotoxicity in CHO cells assessed as chromosomal aberrations at 7.8 ppm after 60 mins in dark followed by 5 W/m'2 UV irradiation for 30 mins; assay type: toxicity, cell-based, Cricetulus griseus; conditions: chinese hamster, 0.5 h
CHO [50] = experiment: Genotoxicity in CHO cells assessed as chromosomal aberrations at 125 ppm after 90 mins in dark; assay type: toxicity, cell-based, Cricetulus griseus; conditions: chinese hamster, 1.5 h
Saccharomyces cerevisiae [51] = experiment: Phototoxicity against Saccharomyces cerevisiae at 10 ug/disk after irradiation with W/m'2 UV light; assay type: functional; conditions: light or radiation study, read-out: IZ

## C=C[C@H]1C[N@@]2CC[C@H]1C[C@H]2[C@H](O)c1ccnc2ccc(OC)cc12 [QUININE]
CHO [1]
  Activity: 0%
CHO [2]
  Activity: Toxic
CHO [3]
  Activity: Toxic
CHO [4]
  Activity: Active
CHO [5]
  Activity: Active
CHO [6]
  Activity: Toxic
CHO [7]
  Activity: Toxic
CHO [8]
  Activity: Active

## CN1[C@@H]2CC[C@H]1C[C@@H](OC(=O)C(CO)c1ccccc1)C2 (stereo partly drawn) [ATROPINE SULFATE]
Saccharomyces cerevisiae [9]
  zone of inhibition at 100 µg/disc: 0 mm
Pseudomonas aeruginosa [10]
  zone of inhibition at 100 µg/disc: 0 mm
Enterococcus faecalis [11]
  zone of inhibition at 100 µg/disc: 0 mm
Pseudomonas fluorescens [12]
  zone of inhibition at 100 µg/disc: 0 mm
Bacillus subtilis [13]
  zone of inhibition at 100 µg/disc: 0 mm
Candida albicans [14]
  zone of inhibition at 100 µg/disc: 0 mm
Saccharomyces cerevisiae [15]
  zone of inhibition at 100 µg/disc: 0 mm
Enterococcus faecalis [16]
  zone of inhibition at 100 µg/disc: 0 mm
Pseudomonas fluorescens [17]
  zone of inhibition at 100 µg/disc: 0 mm
Candida albicans [18]
  zone of inhibition at 100 µg/disc: 0 mm
Pseudomonas aeruginosa [19]
  zone of inhibition at 100 µg/disc: 0 mm
Staphylococcus aureus [20]
  zone of inhibition at 100 µg/disc: 0 mm
Staphylococcus aureus [21]
  zone of inhibition at 100 µg/disc: 0 mm

## Cc1nccc2c1[nH]c1ccccc12 [HARMANE HYDROCHLORIDE]
[22]
  inhibition at 0.5 h, 0.62 ppm: 0%

## O=C1C[C@@H]2OCC=C3CN4CC[C@]56c7ccccc7N1[C@H]5[C@H]2[C@H]3C[C@H]46 [STRYCHNINE]
CHO [23]
  Activity: Not Active
CHO [24]
  Activity: Not Active

## CN1[C@@H]2CC[C@H]1C[C@@H](OC(=O)C(CO)c1ccccc1)C2 (stereo partly drawn) [ATROPINE]
CHO [23]
  Activity: Not Active
CHO [24]
  Activity: Not Active

## COc1ccc2[nH]c3c(c2c1)CCN=C3C
CHO [25]
  Activity: Active
CHO [26]
  Activity: Toxic
CHO [27]
  Activity: 0%

## O=c1ccc2nccc3c4ccccc4n1c23 [CANTHIN-6-ONE]
Candida albicans [28]
  zone of inhibition at 10 µg/disc: 9 mm
Bacillus subtilis [29]
  zone of inhibition at 10 µg/disc: 16 mm
Bacillus subtilis [30]
  zone of inhibition at 10 µg/disc: 8.6 mm
Enterococcus faecalis [31]
  zone of inhibition at 10 µg/disc: 0 mm
Pseudomonas fluorescens [32]
  zone of inhibition at 10 µg/disc: 0 mm
Escherichia coli [33]
  zone of inhibition at 10 µg/disc: 0 mm
CHO [34]
  Activity: Toxic
Pseudomonas aeruginosa [35]
  zone of inhibition at 10 µg/disc: 0 mm
Staphylococcus aureus [36]
  zone of inhibition at 10 µg/disc: 0 mm
Candida albicans [37]
  zone of inhibition at 10 µg/disc: 13 mm
Escherichia coli [38]
  zone of inhibition at 10 µg/disc: 7 mm
Pseudomonas aeruginosa [39]
  zone of inhibition at 10 µg/disc: 0 mm
Staphylococcus aureus [40]
  zone of inhibition at 10 µg/disc: 10 mm
Saccharomyces cerevisiae [41]
  zone of inhibition at 10 µg/disc: 9 mm
CHO [42]
  Activity: Toxic
Enterococcus faecalis [43]
  zone of inhibition at 10 µg/disc: 0 mm
CHO [44]
  Activity: Toxic
CHO [45]
  Activity: Toxic
Pseudomonas fluorescens [46]
  zone of inhibition at 10 µg/disc: 0 mm
CHO [47]
  Activity: 22.2%
CHO [48]
  Activity: Active
CHO [49]
  Activity: Toxic
CHO [50]
  Activity: 0%
Saccharomyces cerevisiae [51]
  zone of inhibition at 10 µg/disc: 13 mm
